The values that follow come from US8685916B2, “Opioid prodrugs with heterocyclic linkers” (Signature Therapeutics, Inc., priority 2011, dated 2014).

Data set [1] addresses T1, trypsin (Bos taurus, UniProt P00760).
T1 construct: purchased Sigma-Aldrich T8003; host or cells: bovine pancreas (tissue-derived preparation)
T1 sequence (P00760 24-246): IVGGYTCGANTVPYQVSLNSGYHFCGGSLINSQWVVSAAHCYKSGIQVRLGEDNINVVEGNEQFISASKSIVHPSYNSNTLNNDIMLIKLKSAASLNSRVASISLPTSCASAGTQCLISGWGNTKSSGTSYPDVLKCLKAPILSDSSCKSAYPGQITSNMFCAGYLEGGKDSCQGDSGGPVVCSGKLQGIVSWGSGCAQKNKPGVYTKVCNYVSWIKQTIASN
The data set can be described thus: In vitro trypsin-mediated cleavage of hydrocodone prodrugs. Format: biochemical, bovine. Particulars: bovine, trypsin from bovine pancreas, pH 8; adjusted to 4815 BAEE U trypsin/mL; read-out: Prodrug trypsin half-life (converted). The protocol: (§1) The reactions were conducted at 37° C. for 24 h.
(§2) Table 9 indicates the results of exposure of the tested prodrugs to trypsin.

The nature of data set [2]: Pharmacokinetics of oxycodone prodrugs following PO administration to dogs. Conditions: oxycodone in dog plasma, 5.7-[…] (prodrugs 4.15-[…]; oxycodone 2 mg/kg; OxyContin 20 mg tablet).
For data set [3], the target named is T2, trypsin from bovine pancreas (Bos taurus, UniProt P00760).
T2 construct: purchased Sigma-Aldrich T8003; host or cells: bovine pancreas (tissue-derived preparation)
T2 sequence (P00760 24-246): T1 sequence (P00760 24-246)
The data set can be described thus: In vitro trypsin-mediated cleavage of oxycodone prodrugs. Format: biochemical. Conditions: 0.761 mM prodrug, Tris pH 8, 37° C. Here is the method:
as §1
(§3) Table 4 indicates the results of exposure of the tested prodrugs to trypsin. […] Table 4 also indicates the cyclization rate of the cyclizable spacer leaving group of Compound KC-9, Compound KC-11, and Compound KC-18. The results are expressed as half-life of compound disappearance. For Compound KC-11, a diastereomer, two peaks (A and B) were analyzed.

For data set [4], the target named is T1, trypsin. The data set is described as above. Format: biochemical, bovine. Conditions: bovine, trypsin from bovine pancreas; 0.761 mM prodrug, Tris pH 8, 37° C.; adjusted to 4815 BAEE U trypsin/mL. The protocol:
as §1, §3

Data set [5] can be described thus: Pharmacokinetics following PO administration of ketone-modified oxycodone prodrugs to rats.
The target in data set [6] is T2, trypsin from bovine pancreas. The data set can be described thus: In vitro trypsin-mediated cleavage of hydrocodone prodrugs. In kind it is biochemical. Here is the method:
as §1, §2

Data set [7] has the same target. The data set can be described thus: In vitro trypsin conversion of Compound TP-5 to tapentadol and inhibition by Compound 109. In kind it is biochemical. Here is the method: (§4) Other reaction, incubation, sample treatment and analysis procedures were similar to those described in Example 39.
Data set [8] concerns the target T1, trypsin. The description is as above. In kind it is biochemical, bovine. Conditions: bovine, trypsin from bovine pancreas, read-out: Pro-drug trypsin half-life, Average ± sd (converted). The protocol: as §4
The mark [9] stands for this setting: oxycodone in rat plasma, 28-34 μmol/kg (prodrugs 16-24 mg/kg; oxycodone 10 mg/kg).

Where two headings read alike, the source gives them in different places.

The term half-life denotes the time needed for the level to fall by half in the phase considered. Consider `COc1ccc2c3c1O[C@H]1C(OC(=O)N4CC(C(=O)O)CCC4CNC(=O)[C@H](CCCNC(=N)N)NC(=O)CNC(C)=O)=CC[C@H]4[C@@H](C2)N(C)CC[C@]314` (mixture of isomers) [Compound KC-32, N-(hydrocodone-6-enol-carbonyl)-[(2-methylamino)piperidine-3-carboxylate]-L-arginine-glycine-acetate], for which the half-life at 0.761 mM in data set [1] is 9 min.

Turning to `COc1ccc2c3c1O[C@H]1C(OC(=O)N(C)CCNC(=O)[C@H](CCCNC(=N)N)NC(=O)CC(=O)O)=CC[C@@]4(O)[C@@H](C2)N(C)CC[C@]314` [Compound KC-3, N-1-[2-(oxycodone-6-enol-carbonyl-methyl-amino)-ethylamine]-L-arginine-malonate], in data set [2], the “AUC ± sd” value was determined as 65.6 ± 22 ng·h/mL and the “OC Cmax ± sd” value was 10.2 ± 3.3 ng/mL.

On to `COc1ccc2c3c1O[C@H]1C(OC(=O)N4CCCC4CNC(=O)[C@H](CCCNC(=N)N)NC(=O)CC(=O)O)=CC[C@@]4(O)[C@@H](C2)N(C)CC[C@]314` (stereo partly drawn) [Compound KC-10, N-(oxycodone-6-enol-carbonyl)pyrrolidine-2-methylamine-L-arginine-malonate], for which the OC formation rate in data set [3] worked out at 0.00274 ± 0.00027 μmol/h/BAEE U. The half-life at 0.761 mM in data set [4] was 9.01 ± 0.306 min.

Turning to `COc1ccc2c3c1O[C@H]1C(OC(=O)N4CCCCC4CN)=CC[C@@]4(O)[C@@H](C2)N(C)CC[C@]314` (stereo partly shown) [Compound KC-11, N-(oxycodone-6-enol-carbonyl)piperidine-2-methylamine], the “AUC ± sd” value in data set [5] (oxycodone in rat plasma, 0 to 24 h, 28-34 μmol/kg (prodrugs 16-24 mg/kg; oxycodone 10 mg/kg)) was determined as 57.0 ± 9.0 ng·h/mL. For the same compound, in data set [5] (setting [9]), the “OC Cmax ± sd” value worked out at 13.6 ± 3.0 ng/mL and the “Tmax ± sd” value was 60 ± 0 min. In addition, in data set [5] (rats), the “release of oxycodone compared with Compound KC-9” value was “significantly more oxycodone than does Compound KC-9”.

Turning to `COc1ccc2c3c1O[C@H]1C(OC(=O)N4CCCCC4CNC(=O)[C@H](CCCNC(=N)N)NC(=O)CC(=O)O)=CC[C@@]4(O)[C@@H](C2)N(C)CC[C@]314` (stereo partly drawn) [Compound KC-12, N-(oxycodone-6-enol-carbonyl)piperidine-2-methylamine-L-arginine-malonate], in data set [3], the OC formation rate turned out to be 0.231 ± 0.0097 μmol/h/BAEE U. In data set [4], the half-life at 0.761 mM was 9.498 ± 0.0114 min.

For the compound `COc1ccc2c3c1O[C@H]1C(OC(=O)N4CCCCC4CNC(=O)[C@H](CCCNC(=N)N)NC(=O)[C@H](C)NC(C)=O)=CC[C@@]4(O)[C@@H](C2)N(C)CC[C@]314` (stereo partly drawn) [Compound KC-13, N-(oxycodone-6-enol-carbonyl)piperidine-2-methylamine-L-arginine-L-alanine-acetate], the OC formation rate in data set [3] is given as 47.1 ± 5.72 μmol/h/BAEE U. Further, the half-life at 0.761 mM in data set [4] was 0.0458 ± 0.00051 min.

With `COc1ccc2c3c1O[C@H]1C(OC(=O)N4CCCCC4CNC(=O)[C@H](CCCNC(=N)N)NC(=O)CNC(C)=O)=CC[C@@]4(O)[C@@H](C2)N(C)CC[C@]314` (stereo partly drawn) [Compound KC-14, N-(oxycodone-6-enol-carbonyl)piperidine-2-methylamine-L-arginine-glycine-acetate], in data set [3], the OC formation rate is listed as 5.48 ± 0.1 μmol/h/BAEE U. Further, the half-life at 0.761 mM in data set [4] was 0.5143 ± 0.00198 min.

As to `COc1ccc2c3c1O[C@H]1C(OC(=O)N4CCCCC4CNC(=O)[C@H](CCCNC(=N)N)NC(=O)[C@H](C)NC(=O)CC(=O)O)=CC[C@@]4(O)[C@@H](C2)N(C)CC[C@]314` (stereo partly drawn) [Compound KC-15, N-(oxycodone-6-enol-carbonyl)piperidine-2-methylamine-L-arginine-L-alanine-malonate], the OC formation rate in data set [3] is on record as 22.3 ± 0.8 μmol/h/BAEE U. Further, the half-life at 0.761 mM in data set [4] was 0.173 ± 0.0114 min.

For `COc1ccc2c3c1O[C@H]1C(OC(=O)N4CCCCC4CNC(=O)[C@H](CCCNC(=N)N)NC(=O)CNC(=O)CC(=O)O)=CC[C@@]4(O)[C@@H](C2)N(C)CC[C@]314` (stereo partly drawn) [Compound KC-16, N-(oxycodone-6-enol-carbonyl)piperidine-2-methylamine-L-arginine-glycine-malonate], in data set [3], the OC formation rate turned out to be 1.46 ± 0.093 μmol/h/BAEE U. In data set [4], the half-life at 0.761 mM was 2.37 ± 0.162 min.

In the case of `COc1ccc2c3c1O[C@H]1C(OC(=O)N4CCCC[C@@H]4CNC(=O)[C@H](CCCNC(=N)N)NC(=O)CNC(=O)CC(=O)O)=CC[C@@]4(O)[C@@H](C2)N(C)CC[C@]314` [Compound KC-17, N-(oxycodone-6-enol-carbonyl)-R-(piperidine-2-methylamine)-L-arginine-glycine-malonate], in data set [3], the OC formation rate is 1.23 ± 0.011 μmol/h/BAEE U. Besides, the half-life at 0.761 mM in data set [4] was 2.65 ± 0.117 min.

On to `COc1ccc2c3c1O[C@H]1C(OC(=O)N4CCCC[C@@H]4CNC(=O)[C@H](CCCNC(=N)N)NC(=O)CNC(=O)CC(=O)O)=CC[C@H]4[C@@H](C2)N(C)CC[C@]314` [Compound KC-31, N-(hydrocodone-6-enol-carbonyl)-R-(piperidine-2-methylamine)-L-arginine-glycine-malonate], for which, in data set [1], the half-life at 0.761 mM is 3.9 min.

Regarding `COc1ccc2c3c1O[C@H]1C(OC(=O)N4CCCC[C@@H]4CNC(=O)[C@H](CCCNC(=N)N)NC(=O)[C@H](C)NC(=O)CC(=O)O)=CC[C@H]4[C@@H](C2)N(C)CC[C@]314` [Compound KC-35, N-(hydrocodone-6-enol-carbonyl)-R-(piperidine-2-methylamine)-L-arginine-L-alanine-malonate], in data set [1], the half-life at 0.761 mM was 0.48 min.

As to `COc1ccc2c3c1O[C@H]1C(OC(=O)N4CCCC[C@@H]4CNC(=O)[C@H](CCCNC(=N)N)NC(=O)CNC(C)=O)=CC[C@H]4[C@@H](C2)N(C)CC[C@]314` [Compound KC-36, N-(hydrocodone-6-enol-carbonyl)-R-(piperidine-2-methylamine)-L-arginine-glycine-acetate], the HC formation rate in data set [6] worked out at 0.004 ± 0.00 μmol/h/BAEE U. Besides, in data set [1], the half-life at 0.761 mM is 1.08 min.

Consider `COc1ccc2c3c1O[C@H]1C(OC(=O)N4CCCC[C@@H]4CNC(=O)[C@H](CCCNC(=N)N)NC(=O)[C@H](C)NC(C)=O)=CC[C@H]4[C@@H](C2)N(C)CC[C@]314` [Compound KC-37, N-(hydrocodone-6-enol-carbonyl)-R-(piperidine-2-methylamine)-L-arginine -L-alanine-acetate], for which the HC formation rate in data set [6] stood at 0.004 ± 0.00 μmol/h/BAEE U.

Regarding `COc1ccc2c3c1O[C@H]1C(OC(=O)N4CCCC[C@@H]4CNC(=O)[C@H](CCCNC(=N)N)NC(C)=O)=CC[C@H]4[C@@H](C2)N(C)CC[C@]314` [Compound KC-38, N-(hydrocodone-6-enol-carbonyl)-R-(piperidine-2-methylamine)-L-arginine-acetate], the HC formation rate in data set [6] turned out to be 0.001 ± 0.00 μmol/h/BAEE U. Moreover, the half-life at 0.761 mM in data set [1] was 7.2 ± 0.6 min.

On to `COc1ccc2c3c1O[C@H]1C(OC(=O)N4CCCC[C@@H]4CNC(=O)[C@H](CCCNC(=N)N)NC(=O)CC(=O)O)=CC[C@H]4[C@@H](C2)N(C)CC[C@]314` [Compound KC-39, N-(hydrocodone-6-enol-carbonyl)-R-(piperidine-2-methylamine)-L-arginine-malonate], for which the HC formation rate in data set [6] turned out to be 0.00 ± 0.00 μmol/h/BAEE U. Besides, the half-life at 0.761 mM in data set [1] is 23.9 min.

As for `CC[C@@H](c1cccc(OC(=O)N2CCCCC2CNC(=O)[C@@H](CCCNC(=N)N)NC(=O)CC(=O)O)c1)[C@@H](C)CN(C)C` (stereo partly drawn) [Compound TP-5, N-(Tapentadol-carbonyl)piperidine-2-methylamine-L-arginine-malonate], the “Rate of TP formation, Average ± sd” value in data set [7] (Compound 109 0 μM) came out at 0.684 ± 0.036 μmol/h/BAEE U; in data set [7] (Compound 109 8 μM), 0.1043 ± 0.0049 μmol/h/BAEE U. In addition, the half-life in data set [8] (with Compound 109 (trypsin inhibitor), 8 µM) is 62.4 ± 0.0366 min; in data set [8] it was 3.99 ± 0.00024 min.
